Results published in PubChem BioAssay (NCI).
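Dose response: 5 concentrations. Exposure: 48 h. Format: 96-well plates. Endpoint: linear interpolation; highest concentration if not reached. Here, GI50 denotes the concentration required for 50% inhibition of growth. TGI: total growth inhibition.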

Tests used:
Assay in all cases: NCI-60 cell line screen, 48 h
786-0 renal = system: 786-0 renal
A498 renal = system: A498 renal
A549 NSCLC = system: A549 NSCLC
ACHN renal = system: ACHN renal
BT-549 breast = system: BT-549 breast
CAKI-1 renal = system: CAKI-1 renal
CCRF-CEM leukemia = system: CCRF-CEM leukemia
COLO 205 colon = system: COLO 205 colon
DU-145 prostate = system: DU-145 prostate
EKVX NSCLC = system: EKVX NSCLC
HCC-2998 colon = system: HCC-2998 colon
HCT-116 colon = system: HCT-116 colon
HCT-15 colon = system: HCT-15 colon
HL-60(TB) leukemia = system: HL-60(TB) leukemia
HOP-62 NSCLC = system: HOP-62 NSCLC
HS 578T breast = system: HS 578T breast
IGROV1 ovarian = system: IGROV1 ovarian
K-562 leukemia = system: K-562 leukemia
KM12 colon = system: KM12 colon
LOX IMVI melanoma = system: LOX IMVI melanoma
M14 melanoma = system: M14 melanoma
MALME-3M melanoma = system: MALME-3M melanoma
MCF7 breast = system: MCF7 breast
MDA-MB-231 breast = system: MDA-MB-231 breast
MDA-MB-435 = system: MDA-MB-435
MOLT-4 leukemia = system: MOLT-4 leukemia
NCI-H226 lung = system: NCI-H226 lung
NCI-H23 lung = system: NCI-H23 lung
NCI-H460 lung = system: NCI-H460 lung
NCI-H522 lung = system: NCI-H522 lung
NCI/ADR-RES ovarian = system: NCI/ADR-RES ovarian
OVCAR-3 ovarian = system: OVCAR-3 ovarian
OVCAR-4 ovarian = system: OVCAR-4 ovarian
OVCAR-5 ovarian = system: OVCAR-5 ovarian
OVCAR-8 ovarian = system: OVCAR-8 ovarian
PC-3 prostate = system: PC-3 prostate
RXF 393 renal = system: RXF 393 renal
SF-268 CNS = system: SF-268 CNS
SF-295 CNS = system: SF-295 CNS
SF-539 CNS = system: SF-539 CNS
SK-MEL-28 melanoma = system: SK-MEL-28 melanoma
SK-MEL-5 melanoma = system: SK-MEL-5 melanoma
SK-OV-3 ovarian = system: SK-OV-3 ovarian
SN12C renal = system: SN12C renal
SNB-19 CNS = system: SNB-19 CNS
SR leukemia = system: SR leukemia
SW-620 colon = system: SW-620 colon
T-47D breast = system: T-47D breast
TK-10 renal = system: TK-10 renal
U251 CNS = system: U251 CNS
UACC-257 melanoma = system: UACC-257 melanoma
UACC-62 melanoma = system: UACC-62 melanoma
UO-31 renal = system: UO-31 renal

`O=C1NC(=S)S/C1=C(/C=C(\CC(=O)c1ccccc1)c1ccc(Cl)cc1)c1ccccc1` showed a GI50 (786-0 renal) of 46.9 µM, a TGI (786-0 renal) greater than 100 µM and a GI50 (A498 renal) of 38 µM. For the same compound, the TGI (A498 renal) was 76 µM, the GI50 (A549 NSCLC) was 20.2 µM and the TGI (A549 NSCLC) was greater than 100 µM. It also gave a GI50 (ACHN renal) of 25.5 µM, a TGI (ACHN renal) of 61.3 µM and a GI50 (BT-549 breast) of 33 µM. For the same compound, the TGI (BT-549 breast) was greater than 100 µM, the GI50 (CAKI-1 renal) was 33.7 µM and the TGI (CAKI-1 renal) was greater than 100 µM. It also gave a GI50 (CCRF-CEM leukemia) of 24.7 µM, a TGI (CCRF-CEM leukemia) of 73.7 µM and a GI50 (COLO 205 colon) of 32.5 µM. For the same compound, the TGI (COLO 205 colon) was greater than 100 µM, the GI50 (DU-145 prostate) was 43.1 µM and the TGI (DU-145 prostate) was greater than 100 µM. The GI50 (EKVX NSCLC) was 33.6 µM, the TGI (EKVX NSCLC) was greater than 100 µM and the GI50 (HCC-2998 colon) was 18.2 µM. It also gave a TGI (HCC-2998 colon) of 47.4 µM, a GI50 (HCT-116 colon) of 31.8 µM and a TGI (HCT-116 colon) greater than 100 µM. The GI50 (HCT-15 colon) was 15.8 µM, the TGI (HCT-15 colon) was 39.4 µM and the GI50 (HL-60(TB) leukemia) was 21.7 µM. It also gave a TGI (HL-60(TB) leukemia) of 55.2 µM, a GI50 (HOP-62 NSCLC) of 38.5 µM and a TGI (HOP-62 NSCLC) greater than 100 µM. The GI50 (HS 578T breast) was 42.3 µM, the TGI (HS 578T breast) was 85.4 µM and the GI50 (IGROV1 ovarian) was 41.6 µM. For the same compound, the TGI (IGROV1 ovarian) was greater than 100 µM, the GI50 (K-562 leukemia) was 15.3 µM and the TGI (K-562 leukemia) was greater than 100 µM. It also gave a GI50 (KM12 colon) of 28.2 µM, a TGI (KM12 colon) greater than 100 µM and a GI50 (LOX IMVI melanoma) of 37.6 µM. It also gave a TGI (LOX IMVI melanoma) greater than 100 µM, a GI50 (M14 melanoma) of 24.7 µM and a TGI (M14 melanoma) of 63.4 µM. For the same compound, the GI50 (MALME-3M melanoma) was 39.9 µM, the TGI (MALME-3M melanoma) was greater than 100 µM and the GI50 (MCF7 breast) was 19.8 µM. It also gave a TGI (MCF7 breast) of 48.1 µM, a GI50 (MDA-MB-231 breast) of 25 µM and a TGI (MDA-MB-231 breast) of 72.6 µM. It also gave a GI50 (MDA-MB-435) of 37.2 µM, a TGI (MDA-MB-435) greater than 100 µM and a GI50 (MOLT-4 leukemia) of 19.5 µM. It also gave a TGI (MOLT-4 leukemia) of 51.6 µM, a GI50 (NCI-H226 lung) of 28.5 µM and a TGI (NCI-H226 lung) of 90.4 µM. For the same compound, the GI50 (NCI-H23 lung) was 21.8 µM, the TGI (NCI-H23 lung) was 48.8 µM and the GI50 (NCI-H460 lung) was 19.9 µM. It also gave a TGI (NCI-H460 lung) of 45.7 µM, a GI50 (NCI-H522 lung) of 17.9 µM and a TGI (NCI-H522 lung) of 44.9 µM. For the same compound, the GI50 (NCI/ADR-RES ovarian) was 28.4 µM, the TGI (NCI/ADR-RES ovarian) was 79.9 µM and the GI50 (OVCAR-3 ovarian) was 24.2 µM. The TGI (OVCAR-3 ovarian) was greater than 100 µM, the GI50 (OVCAR-4 ovarian) was 44.9 µM and the TGI (OVCAR-4 ovarian) was greater than 100 µM. For the same compound, the GI50 (OVCAR-5 ovarian) was 65.4 µM, the TGI (OVCAR-5 ovarian) was greater than 100 µM and the GI50 (OVCAR-8 ovarian) was 26.5 µM. For the same compound, the TGI (OVCAR-8 ovarian) was greater than 100 µM, the GI50 (PC-3 prostate) was 25.8 µM and the TGI (PC-3 prostate) was 83.3 µM. It also gave a GI50 (RXF 393 renal) of 23.4 µM, a TGI (RXF 393 renal) of 82.1 µM and a GI50 (SF-268 CNS) of 27.1 µM. It also gave a TGI (SF-268 CNS) of 96 µM, a GI50 (SF-295 CNS) of 23.4 µM and a TGI (SF-295 CNS) of 64.7 µM. For the same compound, the GI50 (SF-539 CNS) was 39 µM, the TGI (SF-539 CNS) was greater than 100 µM and the GI50 (SK-MEL-28 melanoma) was 61.9 µM. The TGI (SK-MEL-28 melanoma) was greater than 100 µM, the GI50 (SK-MEL-5 melanoma) was 19.1 µM and the TGI (SK-MEL-5 melanoma) was 34.3 µM. The GI50 (SK-OV-3 ovarian) was greater than 100 µM, the TGI (SK-OV-3 ovarian) was greater than 100 µM and the GI50 (SN12C renal) was 25.3 µM. For the same compound, the TGI (SN12C renal) was 56.3 µM, the GI50 (SNB-19 CNS) was 95.1 µM and the TGI (SNB-19 CNS) was greater than 100 µM. The GI50 (SR leukemia) was 27 µM, the TGI (SR leukemia) was 63.3 µM and the GI50 (SW-620 colon) was 42.9 µM. For the same compound, the TGI (SW-620 colon) was greater than 100 µM, the GI50 (T-47D breast) was 35.6 µM and the TGI (T-47D breast) was greater than 100 µM. It also gave a GI50 (TK-10 renal) of 29.6 µM, a TGI (TK-10 renal) greater than 100 µM and a GI50 (U251 CNS) of 30.9 µM. It also gave a TGI (U251 CNS) greater than 100 µM, a GI50 (UACC-257 melanoma) of 21.9 µM and a TGI (UACC-257 melanoma) of 61.8 µM. The GI50 (UACC-62 melanoma) was 21.6 µM, the TGI (UACC-62 melanoma) was 43.7 µM and the GI50 (UO-31 renal) was 48.6 µM. For the same compound, the TGI (UO-31 renal) was greater than 100 µM.
